Consider five compounds from patent publication US20140051685A1, “THERAPEUTIC TREATMENT FOR METABOLIC SYNDROME, TYPE 2 DIABETES, OBESITY OR PREDIABETES” (priority 2010, published 2014).

Common to all, as to assay type: in vivo
The subject of assay [1] is obese, diabetic female ob/ob mice. Nature of the assay: Fusaric acid plus SKF 38393 in ob/ob mice. Conditions: fusaric acid 15 mg/kg, SKF 38393 10 mg/kg. As to the method:
Fusaric acid is a dopamine beta hydroxylase inhibitor that reduces noradrenaline synthesis in noradrenergic neurons. It is not present in dopaminergic neurons and thus exerts no such effect there. SKF38393 is a post-synaptic dopamine D1 receptor agonist with no marked influence on noradrenergic neurons. A study was conducted to determine the interactive effects of fusaric acid plus SKF 38393 on body fat store levels, and blood glucose and plasma triglyceride levels in ob/ob mice. The ob/ob mouse is hyperphagic, obese, insulin resistant, diabeteic and dyslipidemic due to the absence of functional leptin as a result of a mutation in this gene.
Obese, diabetic female ob/ob mice (body weight of approximately 33 g) maintained on 14 hour daily photoperiods, housed one per cage and allowed to feed ad libitum were randomized to once daily treatment with either fusaric acid (15 mg/kg; n=6-8), SKF 38393 (10 mg/kg; n=6-8), both fusaric acid (15 mg/kg) and SKF 38393 (10 mg/kg) (n=6-8), or vehicle (control group; n=6-8) for a 14 day period. On the fifteenth day of the study and approximately 24 hours after the final treatment animals were sacrificed and blood samples were obtained for the analyses of blood glucose, plasma free fatty acid and triglyceride levels. Relative to controls, fusaric acid raised blood glucose from 380±30 mg/dl to 430±30 mg/dl and SKF 38393 reduced blood glucose to 290±55 mg/dl. However, fusaric acid plus SKF 38393 reduced blood glucose to 180±20 mg/dl. […] Neither fusaric acid nor SKF 38393 had any effect on retroperitoneal fat pad weight (735±43 mg and 735±50 mg, respectively versus control value of 727±25 mg) however, the combination of fusaric acid plus SKF 38393 reduced retroperitoneal fat pad weight to 680±25 mg.

Assay [2] relates to high fat fed, hypertensive SHR rats. Nature of the assay: Quinelorane plus fusaric acid in high fat fed, hypertensive SHR rats. The note with it: SHR rats on high fat diet. The procedure: Male SHR rats were maintained on 14 hour daily photoperiods and fed a high fat diet (60% of energy from fat; 5.24 kcal/gram weight) for 3 weeks and then divided into different groups and treated with either quinelorane (Q; a dopamine D2/D3 mixed receptor agonist) (0.075 mg/kg), fusaric acid (FA; a dopamine beta hydroxylase inhibitor) (12.5 mg/kg), quinelorane (0.075 mg/kg) plus FA (Q/FA) (12.5 mg/kg), or vehicle at 13 hours after light onset for 17 days. The doses of Q and FA were set at less than half maximal to effect central dopamine receptor binding functions and dopamine beta hydroxylase activity, respectively. […] Blood pressure measurements were taken at 14 days of treatment and animals were sacrificed at 18 days of treatment for analyses of body fat and humoral factors and metabolites. […] Respecting blood glucose, although both Q and FA reduced glucose level relative to vehicle, only the Q/FA regimen normalized blood glucose in these animals relative to vehicle (FIG. 6).

Assay [3] has as its system obese, diabetic female ob/ob mice. Nature of the assay: Low dose amphetamine with or without bromocriptine in ob/ob mice. Conditions: amphetamine 3 mg/kg. An excerpt:
Amphetamine is a selective presynaptic dopamine release enhancer. It also acts as a presynaptic noradrenergic release enhancer but at higher dosages that will counter the effect of the dopamine reuptake inhibition activity to improve metabolism. However, addition of a dopamine D2 receptor agonist will act to reduce any amphetamine-induced increase in synaptic noradrenaline level and therefore should produce a more pronounced desired effect on metabolic disease than amphetamine or the D2 receptor agonist alone. A study was conducted to determine the effects of low dose amphetamine (3 mg/kg) with or without the dopamine D2 receptor agonist bromocriptine (5-<10 mg/kg dose) upon body weight gain, blood glucose, plasma free fatty acid and triglyceride levels in obese, diabetic mice (ob/ob strain). […] The ob/ob mouse is hyperphagic, obese, insulin resistant, diabetic and dyslipidemic due to the absence of functional leptin as a result of a mutation in this gene. Starvation or calorie restriction of these mice leads to increases in plasma free fatty acid levels that can function over the long term to worsen diabetes.
On the fifteenth day of the study and approximately 24 hours after the final treatment animals were sacrificed and blood samples were obtained for the analyses of blood glucose, plasma free fatty acid and triglyceride levels. […] Amphetamine had no effect on final body weight however, amphetamine plus bromocriptine reduced final body weight from 44±1 g to 39=/- 1.5 g.

Assay [4] has as its system female C57 Black mice fed a high simple sugar/moderate fat diet (western diet). Nature of the assay: Body fat in C57 Black mice fed a western diet (GBR, FA, clonidine and combinations). Conditions: mice on western diet; GBR 25 mg/kg, FA 10 mg/kg, clonidine 0.075 mg/kg; 14 days; relative to vehicle and BC/SKF groups; FIG. 7. As to the method: Female C57 Black mice were maintained on a 12 hour daily photoperiod and fed a high simple sugar/moderate fat diet (western diet) for several weeks to induce obesity and then different groups of animals (n =5-8/group) were treated with either GBR 12909 (25 mg/kg), FA (10 mg/kg), clonidine (0.075 mg/kg), GBR (25 mg/kg) plus FA (10 mg/kg), GBR (25 mg/kg) plus clonidine (0.075 mg/kg), bromocriptine (10 mg/kg) plus SKF38393 (10 mg/kg), or vehicle and sacrificed after 14 days of treatment to analyze body fat store levels.

Assay [5] relates to obese, diabetic female ob/ob mice with mild diabetes. Nature of the assay: GBR 12909 and clonidine, interactive effects on blood glucose in ob/ob mice. Conditions: GBR 12909 about 20 mg/kg, clonidine about 0.1 mg/kg, alone or together, once daily 14 days, controls 202±41. The procedure:
GBR 12909 is a specific dopamine reuptake inhibitor. Its use can increase the dopaminergic to noradrenergic neuronal activity in the central nervous system. However, by combining GBR 12909 with clonidine, a noradrenergic alpha 2 receptor agonist with preferential affinity for presynaptic alpha 2 sites, it is possible to further increase the dopamine to noradrenaline neuronal activity ratio in the central nervous system. A study was conducted to determine the interactive effects of GBR 12909 and clonidine on blood glucose level in ob/ob mice.
Obese, diabetic female ob/ob mice (body weight of approximately 28 g) with mild diabetes were maintained on 14 hour daily photoperiods, housed one per cage and allowed to feed ad libitum. Different groups of these animals were randomized to once daily treatment with either a specific dopamine reuptake inhibitor, GBR 12909 at an approximate dose of 20 mg/kg body weight (n=4), or clonidine at an approximate dose of 0.1 mg/kg (n=5), these same dosages of GBR 12909 plus clonidine (n=3), or vehicle (control group; n=5-7) for a 14 day period. On the fifteenth day of the study and approximately 24 hours after the final treatment animals were sacrificed and blood samples were obtained for the analyses of blood glucose levels.

Assay [6] has as its system female mice fed a high fat diet for 20 weeks. Nature of the assay: GBR 12909 plus fusaric acid in mice fed a high fat diet. The procedure: Female mice at 4 weeks of age were fed a high fat diet for 20 weeks to induce diabetes and insulin resistance and continued on such diet while treated for 14 days with either GBR 12909 (10 mg/kg), FA (15 mg/kg), GBR 12909 (10 mg/kg) plus FA (15 mg/kg), or vehicle and sacrificed after 14 days of treatment for the analyses of body fat, blood glucose, plasma insulin, and plasma nitric oxide levels. […] Only the GBR/FA group normalized plasma insulin levels. […] This effect was not observed with either GBR or FA treatments alone.

Assay [7] deals with obese, diabetic female (ob/ob) mice. As to the kind of experiment: GBR 12909 once daily for 14 days in obese, diabetic ob/ob mice. The note with it: 30 mg/kg once daily. The procedure:
GBR 12909 (1-(2-[bis(4-Fluorophenyl)methoxy]ethyl)-4-(3-phenylpropyl)piperazine dihydrochloride) is a specific dopamine reuptake inhibitor. Systemic administration of GBR 12909 can increase the dopaminergic to noradrenergic neuronal activity in the central nervous system. A study was conducted to determine the effects of GBR 12909 upon blood glucose and plasma free fatty acid levels in obese, diabetic mice (ob/ob strain). The ob/ob mouse is hyperphagic, obese, insulin resistant, diabetic and dyslipidemic due to the absence of functional leptin as a result of a mutation in this gene. Starvation or calorie restriction of these mice leads to increases in plasma free fatty acid levels that can function over the long term to worsen diabetes.
Different groups of obese, diabetic female (ob/ob) mice (body weight of approximately 33 g) maintained on 12 hour daily photoperiods, housed one per cage and allowed to feed ad libitum were randomized to once daily treatment with either a specific dopamine reuptake inhibitor, GBR 12909 at a dose of 30 mg/kg body weight (n=5-7) or vehicle (control group; n=5-7) for a 14 day period. On the fifteenth day of the study and approximately 24 hours after the final treatment animals were sacrificed and blood samples were obtained for the analyses of blood glucose and plasma free fatty acid and triglyceride levels.

In assay [8] the test system is male mice fed a high fat diet. As to the kind of experiment: GBR versus bupropion in mice fed a high fat diet. The procedure: The effect of increasing central dopamine neuronal activity versus increasing central dopamine plus norepinephirne neuronal activity on body fat, blood glucose, plasma insulin, and insulin sensitivity was studied in male mice fed a high fat diet from 4 weeks of age until 24 weeks of age. These mice were maintained on this high fat diet while treated with either GBR (20 mg/kg) (a selective dopamine reuptake inhibitor) or bupropion (20 mg/kg) (a dopamine and norepinpehrine reuptake inhibitor) at doses that approximate their 50% maximal effective dose for these functions in vivo in rodents.

[9] abbreviates: relative to vehicle, 18 days of treatment.

On to `Cl.Oc1cc2c(cc1O)C(c1ccccc1)CNCC2` (centres unmarked) [SKF 38393, 1-phenyl-7,8-dihydroxy-2,3,4,5-tetrahydro-1H-3-benzazepine hydrochloride], for which the “retroperitoneal fat pad weight” value in assay [1] (14 days, control value 727±25) stood at 735 ± 50 mg. Besides, in assay [1] (14 days, controls 155±15), the plasma triglyceride level was 130 ± 7 mg/dL. In assay [1] (alone or both, once daily 14 days, controls 380±30), the blood glucose was determined as 290 ± 55 mg/dL.
With `CCCN1CCC[C@@H]2Cc3nc(N)ncc3C[C@H]21` [Q], in assay [2] (Q 0.075 mg/kg, FA 12.5 mg/kg, 17 days, at 13 hours after light onset, FIGS. 1 and 2), the “change from baseline body weight (weight loss)” value is listed as “modest if any effects”. Also, the “desensitization to the effects on weight loss” value in assay [2] (Q 0.075 mg/kg, weight regained to baseline values by treatment end) is on record as “exhibited desensitization”. In assay [2] (setting [9]), the “plasma endothelin-1 (endothelin 1-21 fragment) level” value is reported as “no significant effect” and the “plasma nitric oxide level” value is given as “no significant effect”. In assay [2] (relative to vehicle, FIG. 6), the blood glucose level result is on record as “reduced”.
Consider `CC(N)Cc1ccccc1` (centres unmarked) [amphetamine], for which the “effect on final body weight” value in assay [3] (14 days) is “no effect”. Also, in assay [3] (14 days, controls 900±100), the “plasma free fatty acid levels” value amounted to 510 ± 30 µM. The same compound showed a plasma triglyceride levels in assay [3] (bromocriptine 5-<10 mg/kg, 14 days, controls 175±21) of 70 ± 7 mg/dL. The compound also registered a blood glucose in assay [3] (bromocriptine 5-<10 mg/kg, once daily 14 days, controls 422±46) of 348 ± 22 mg/dL.
As to `Clc1cccc(Cl)c1NC1=NCCN1` [clonidine, 2-(2,6-dichloroanilino)-2-imidazoline], the “body fat store level (intraabdominal fat pad)” value in assay [4] is listed as “no effect”. Besides, the blood glucose in assay [5] is 250 ± 35 mg/dL.
Turning to `Cl.Cl.Fc1ccc(C(OCCN2CCN(CCCc3ccccc3)CC2)c2ccc(F)cc2)cc1` [GBR 12909, 1-(2-[bis(4-Fluorophenyl)methoxy]ethyl)-4-(3-phenylpropyl)piperazine dihydrochloride], in assay [6] (2 weeks of treatment, normal weight for age matched controls=28 grams, FIG. 15), the “body weight (normalization)” value was “not observed”. In assay [6] (GBR 12909 10 mg/kg, FA 15 mg/kg, 14 days, FIG. 11), the blood glucose level entry is “no significant effect”. Besides, the “plasma insulin levels compared to lean, insulin sensitive, non-diabetic mice” value in assay [6] (GBR 12909 10 mg/kg, FA 15 mg/kg, 14 days, FIG. 12) was “significantly higher”. For the same compound, the blood glucose in assay [5] was 221 ± 31 mg/dL; in assay [7] (about 24 hours after final treatment, controls 455±50) it was 145 ± 25 mg/dL; in assay [8] (GBR 20 mg/kg, relative to vehicle and Bupropion (20 mg/kg) groups, FIG. 18), “significantly reduced”. Moreover, the “reduction of plasma triglyceride level relative to controls” value in assay [7] is listed as “approximately 32%”. The same compound displayed a final body weight in assay [7] (controls 42±2) of 28 ± 0.5 g. For the same compound, in assay [7] (controls 780±40), the “plasma free fatty acid levels” value was 450 ± 20 µM. Also, in assay [8] (20 mg/kg each), the “reducing plasma insulin, compared with bupropion at equal dose” value is recorded as “much more effective”. In assay [8] (GBR 20 mg/kg, compared to vehicle and Bupropion (20 mg/kg) groups, FIG. 19), the HOMA-IR values entry is “significantly reduced”. In assay [8] (GBR 20 mg/kg, compared to vehicle and Bupropion (20 mg/kg) treatment, FIG. 17), the “body fat (intraabdominal fat pad)” value is given as “significantly reduced”.
